Settings: Brillouin light scattering

CCC(C)(C)OC [2-methoxy-2-methylbutane]
Settings	speed of sound [m/s]
443.15 K, 2500 kPa, Liquid	537.57
443.15 K, 4000 kPa, Liquid	561.49
443.15 K, 5500 kPa, Liquid	584.45
443.15 K, 7000 kPa, Liquid	606.46
443.15 K, 8500 kPa, Liquid	627.51
443.15 K, 10000 kPa, Liquid	647.61
453.15 K, 660 kPa, Liquid	468.81
453.15 K, 2500 kPa, Liquid	495.6
453.15 K, 4000 kPa, Liquid	520.74
453.15 K, 5500 kPa, Liquid	544.94
453.15 K, 7000 kPa, Liquid	568.2
453.15 K, 8500 kPa, Liquid	590.53
453.15 K, 10000 kPa, Liquid	611.92
463.15 K, 820 kPa, Gas	194.03
463.15 K, 820 kPa, Liquid	424.99
463.15 K, 2500 kPa, Liquid	453.48
463.15 K, 4000 kPa, Liquid	479.86
463.15 K, 5500 kPa, Liquid	505.34
463.15 K, 7000 kPa, Liquid	529.91
463.15 K, 8500 kPa, Liquid	553.58
463.15 K, 10000 kPa, Liquid	576.34
473.15 K, 1010 kPa, Gas	187.27
473.15 K, 1010 kPa, Liquid	380.39
473.15 K, 4000 kPa, Liquid	438.87
473.15 K, 5500 kPa, Liquid	465.66
473.15 K, 7000 kPa, Liquid	491.59
473.15 K, 8500 kPa, Liquid	516.66
473.15 K, 10000 kPa, Liquid	540.87
483.15 K, 1240 kPa, Gas	179.96
483.15 K, 1240 kPa, Liquid	334.95
483.15 K, 4000 kPa, Liquid	397.75
483.15 K, 5500 kPa, Liquid	425.9
488.15 K, 1370 kPa, Gas	175.42
488.15 K, 1370 kPa, Liquid	311.9
493.15 K, 1520 kPa, Gas	169.9
493.15 K, 1520 kPa, Liquid	288.63
493.15 K, 4000 kPa, Liquid	356.51
493.15 K, 5500 kPa, Liquid	386.06
498.15 K, 1680 kPa, Gas	163.13
498.15 K, 1680 kPa, Liquid	265.12
498.15 K, 4000 kPa, Liquid	335.85
498.15 K, 5500 kPa, Liquid	366.12
503.15 K, 1860 kPa, Gas	154.8
503.15 K, 1860 kPa, Liquid	241.38
503.15 K, 4000 kPa, Liquid	315.16
503.15 K, 5500 kPa, Liquid	346.15
508.15 K, 2060 kPa, Gas	144.62
508.15 K, 2060 kPa, Liquid	217.4
508.15 K, 4000 kPa, Liquid	294.43
508.15 K, 5500 kPa, Liquid	326.16
513.15 K, 2270 kPa, Gas	132.28
513.15 K, 2270 kPa, Liquid	193.18
513.15 K, 4000 kPa, Liquid	273.68
513.15 K, 5500 kPa, Liquid	306.15
518.15 K, 2500 kPa, Gas	117.47
518.15 K, 2500 kPa, Liquid	168.7
518.15 K, 4000 kPa, Liquid	252.89
518.15 K, 5500 kPa, Liquid	286.12
523.15 K, 2760 kPa, Gas	99.85
523.15 K, 2760 kPa, Liquid	143.98
523.15 K, 4000 kPa, Liquid	232.08
523.15 K, 5500 kPa, Liquid	266.07
537.15 K, 5000 kPa, Fluid (supercritical or subcritical phases)	228.75
537.15 K, 6000 kPa, Fluid (supercritical or subcritical phases)	279.45
538.63 K, 4000 kPa, Fluid (supercritical or subcritical phases)	166.74
540.07 K, 7000 kPa, Fluid (supercritical or subcritical phases)	308.01
547.15 K, 5000 kPa, Fluid (supercritical or subcritical phases)	173.14
547.15 K, 6000 kPa, Fluid (supercritical or subcritical phases)	231.15
548.05 K, 7000 kPa, Fluid (supercritical or subcritical phases)	273.71
548.23 K, 4000 kPa, Fluid (supercritical or subcritical phases)	93.78
557.15 K, 5000 kPa, Fluid (supercritical or subcritical phases)	137.45
557.15 K, 6000 kPa, Fluid (supercritical or subcritical phases)	185.53
557.95 K, 4000 kPa, Fluid (supercritical or subcritical phases)	114.59
558.89 K, 7000 kPa, Fluid (supercritical or subcritical phases)	235.39
567.15 K, 5000 kPa, Fluid (supercritical or subcritical phases)	122.01
567.15 K, 6000 kPa, Fluid (supercritical or subcritical phases)	152.32
567.35 K, 4000 kPa, Fluid (supercritical or subcritical phases)	139.87
568.4 K, 7000 kPa, Fluid (supercritical or subcritical phases)	200.04
577 K, 5000 kPa, Fluid (supercritical or subcritical phases)	139.01
577 K, 6000 kPa, Fluid (supercritical or subcritical phases)	140.84
577.42 K, 7000 kPa, Fluid (supercritical or subcritical phases)	176.29
577.5 K, 4000 kPa, Fluid (supercritical or subcritical phases)	156.64
586.07 K, 7000 kPa, Fluid (supercritical or subcritical phases)	158.23
586.09 K, 6000 kPa, Fluid (supercritical or subcritical phases)	146.23
586.58 K, 4000 kPa, Fluid (supercritical or subcritical phases)	172.49
586.8 K, 5000 kPa, Fluid (supercritical or subcritical phases)	155.55
597.62 K, 7000 kPa, Fluid (supercritical or subcritical phases)	156.64
598.22 K, 6000 kPa, Fluid (supercritical or subcritical phases)	159.43
599.01 K, 5000 kPa, Fluid (supercritical or subcritical phases)	172.16
599.67 K, 4000 kPa, Fluid (supercritical or subcritical phases)	188.97
607.67 K, 7000 kPa, Fluid (supercritical or subcritical phases)	165.36
608.42 K, 6000 kPa, Fluid (supercritical or subcritical phases)	174.49
609.14 K, 5000 kPa, Fluid (supercritical or subcritical phases)	187.44
610.53 K, 4000 kPa, Fluid (supercritical or subcritical phases)	204.31
616.46 K, 7000 kPa, Fluid (supercritical or subcritical phases)	175.98
617.13 K, 6000 kPa, Fluid (supercritical or subcritical phases)	187.48
618.08 K, 5000 kPa, Fluid (supercritical or subcritical phases)	199.99
618.29 K, 4000 kPa, Fluid (supercritical or subcritical phases)	213.66
626.75 K, 7000 kPa, Fluid (supercritical or subcritical phases)	188.95
627.35 K, 6000 kPa, Fluid (supercritical or subcritical phases)	199.55
628.15 K, 5000 kPa, Fluid (supercritical or subcritical phases)	210.83
629.14 K, 4000 kPa, Fluid (supercritical or subcritical phases)	222.93
636.88 K, 6000 kPa, Fluid (supercritical or subcritical phases)	207.42
636.88 K, 7000 kPa, Fluid (supercritical or subcritical phases)	199.92
638.41 K, 5000 kPa, Fluid (supercritical or subcritical phases)	218.7
639.77 K, 4000 kPa, Fluid (supercritical or subcritical phases)	229.85
645.57 K, 5000 kPa, Fluid (supercritical or subcritical phases)	222.56
645.57 K, 6000 kPa, Fluid (supercritical or subcritical phases)	213.28
645.57 K, 7000 kPa, Fluid (supercritical or subcritical phases)	204.49
646.51 K, 4000 kPa, Fluid (supercritical or subcritical phases)	233.5
656.29 K, 5000 kPa, Fluid (supercritical or subcritical phases)	226.62
656.29 K, 7000 kPa, Fluid (supercritical or subcritical phases)	208.95
656.31 K, 6000 kPa, Fluid (supercritical or subcritical phases)	217.14
657.59 K, 4000 kPa, Fluid (supercritical or subcritical phases)	237.14
669.94 K, 5000 kPa, Fluid (supercritical or subcritical phases)	230.37
669.94 K, 7000 kPa, Fluid (supercritical or subcritical phases)	211.48
669.98 K, 6000 kPa, Fluid (supercritical or subcritical phases)	220.01
670.97 K, 4000 kPa, Fluid (supercritical or subcritical phases)	240.91
680.25 K, 5000 kPa, Fluid (supercritical or subcritical phases)	233.53
680.27 K, 4000 kPa, Fluid (supercritical or subcritical phases)	242.88
680.27 K, 7000 kPa, Fluid (supercritical or subcritical phases)	215.49
680.32 K, 6000 kPa, Fluid (supercritical or subcritical phases)	223.86

— the NIST ThermoML archive (doi:10.1016/j.fluid.2015.10.026)
